The numbers were not newly measured in patent publication US20240226128A1, “NOVEL COMPOUNDS WITH DUAL INHIBITION ACTIVITY AGAINST SARS-COV-2 CRITICAL ENZYMES RDRP, MPRO AND HUMAN TMPRSS2” (priority 2022, published 2024), which cites them from elsewhere.

The subject of this data set is COVID-19. The settings on record: high-risk patient including different variants; cited from earlier work.

In the case of `CC(C)C(=O)OC[C@H]1O[C@@H](n2ccc(NO)nc2=O)[C@H](O)[C@@H]1O` [Molnupiravir], the “reduced risk of COVID-19 death” value is 50%.
